Measured values: patent publication US12628802B2, “Genetically modified rat having PKHD1L1 gene with point mutation and methods for its construction, detection and use” (HUASHAN HOSPITAL AFFILIATED TO FUDAN UNIVERSITY, priority 2022, dated 2026)
“Also recorded” adds a separate entry of the source.

Experiments:
[1] = system: pyramidal neurons in the cerebral cortex; assay: Patch clamp recording of sEPSC and sIPSC of cortical pyramidal neurons in brain slices; type: cell-based, rat; conditions: epilepsy group (PKHD1L1+/− rats) after H89 treatment
Excerpt: Results of Electrophysiological Examination of Transgenic Animal Brain Slices
In transgenic animals (PKHD1L1+/− rats), neuronal excitability increased, and H89 reduced the frequency of spontaneous excitatory post synaptic currents (sEPSC) in pyramidal neurons in the cerebral cortex.
A patch clamp technique was used to record sEPSC and sIPSC (e.g., spontaneous inhibitory post synaptic currents) of cortical pyramidal neurons […], and to observe the changes in excitatory synaptic transmission and inhibitory synaptic transmission of pyramidal neurons in each group of rats, so as to reflect any changes in neuronal excitability.

[2] = system: pyramidal neurons in the cerebral cortex; assay: Recording of Na+ and K+ currents in pyramidal neurons in brain slices; type: cell-based, rat; conditions: control, epilepsy and epilepsy+H89 groups compared
Description: Neuronal excitability is related to Na+ and K+ currents, so the Na+ and K+ currents in pyramidal neurons in the cerebral cortex of each group of rats (e.g., PKHD1L1+/− and wild-type) were recorded. As shown in FIGS. 15A-B, there was no difference in Na+ and K+ currents in pyramidal neurons of rats among all groups (3 young rats in each group, 6 cells in the control [WT] group, 6 cells in the epilepsy [e.g., PKHD1L1+/−] group, and 6 cells in the epilepsy+H89 group), […].

[3] = system: pyramidal neurons in the cerebral cortex; assay: Recording of the action potential of pyramidal neurons in brain slices; type: cell-based, rat
Description: H89 can reduce the excitability of pyramidal neurons in the cerebral cortex of rats with epilepsy. In order to further confirm the excitability of pyramidal neurons in the cerebral cortex, the action potential of pyramidal neurons was recorded. Action potential can intuitively reflect the excitability of neurons. […] Compared with the control group (e.g., WT rats), the positive potential of the epileptic group was decreased after H89 treatment, and the neuronal potential was increased after H89 treatment (P>0.05). There was no difference in the peak and half-duration of the action potential between the two groups. […] It was shown that a reduced neuron action potential threshold in epileptic rats indicates […] of pyramidal neurons, and H89 reversed this trend and improved epileptic symptoms in rats (FIGS. 16A-F).

wild-type (WT) rats = assay: PTZ-induced epilepsy model, wild-type rats; type: in vivo, rat
Description: (§1) Subsequently, the epileptic susceptibility of PKHD1L1+/− rats was studied using a PTZ-induced epilepsy model: A total of 10 male PKHD1L1+/− rats and 10 male wild-type (WT) rats with body weights matched with age (in weeks) were selected for inducing epileptic seizures with PTZ (40 mg/kg). The dose of PTZ selected is lower than the conventional dose in such animal modeling. Only 2 out of the 10 wild-type rats (20%), but 7 out of the 10 (70%) PKHD1L1+/− rats, were induced to have grand mal seizures of grade 4-5 (see FIG. 13A).

PKHD1L1+/− rats = assay: PTZ-induced epilepsy model, PKHD1L1+/- rats; type: in vivo, rat; conditions: PTZ 40 mg/kg
Description: as §1

## O=S(=O)(NCCNC/C=C/c1ccc(Br)cc1)c1cccc2cnccc12 [H89]
[1]
  sEPSC amplitude: decreased
  sEPSC frequency: reduced; also recorded: decreased
[2]
  K+ currents in pyramidal neurons: no difference
  Na+ currents in pyramidal neurons: no difference
[3]; between groups
  half-duration of the action potential: no difference
  peak of the action potential: no difference
[3]; epilepsy group after H89 treatment, P<0.05
  action potential threshold: increased
[3]; epilepsy group after H89 treatment, P>0.05
  positive post-potential (neuronal potential) of the action potential: increased

## C1CCc2nnnn2CC1 [PTZ, pentylenetetrazole]
wild-type (WT) rats; PTZ 40 mg/kg, 10 male wild-type rats
  rats induced to have grand mal seizures of grade 4-5: 20%
wild-type (WT) rats; additional 5 mg/kg at 15-minute intervals, wild-type rats compared with PKHD1L1+/− rats
  mean dose of PTZ required to exhibit grade 4-5 seizures: statistically significantly higher
PKHD1L1+/− rats; 10 male PKHD1L1+/− rats
  rats induced to have grand mal seizures of grade 4-5: 70%
PKHD1L1+/− rats; PKHD1L1+/− rats compared with wild-type rats
  maximum seizure level reached: significantly higher
